Assay results published in patent publication US11465983B2, “USP7 inhibitors for treating multiple myeloma” (Dana-Farber Cancer Institute, Inc., priority 2017, dated 2022).

What was measured:
[1] = target: T1, USP7 (Homo sapiens, UniProt Q93009); test: Isothermal titration calorimetry, binding affinity of protein/ligand; set-up: made in house; host or cells: E. coli BL21 (DE3); details: ITC at 20° C.
Experimental: The binding affinity of protein/ligand was measured by adding 0.02 mM protein in cell and titrating with 0.2 mM ligand in the syringe using an Auto-ITC200 microcalorimeter (Malvern) at 20° C. (FIG. 2C). Proteins and ligands were prepared within ITC buffer containing 20 mM HEPES pH 7.5, 150 mM NaCl, and 2% DMSO. The data were fit using Origin 7.0 software.
Target sequence in this assay (Q93009 whole entry): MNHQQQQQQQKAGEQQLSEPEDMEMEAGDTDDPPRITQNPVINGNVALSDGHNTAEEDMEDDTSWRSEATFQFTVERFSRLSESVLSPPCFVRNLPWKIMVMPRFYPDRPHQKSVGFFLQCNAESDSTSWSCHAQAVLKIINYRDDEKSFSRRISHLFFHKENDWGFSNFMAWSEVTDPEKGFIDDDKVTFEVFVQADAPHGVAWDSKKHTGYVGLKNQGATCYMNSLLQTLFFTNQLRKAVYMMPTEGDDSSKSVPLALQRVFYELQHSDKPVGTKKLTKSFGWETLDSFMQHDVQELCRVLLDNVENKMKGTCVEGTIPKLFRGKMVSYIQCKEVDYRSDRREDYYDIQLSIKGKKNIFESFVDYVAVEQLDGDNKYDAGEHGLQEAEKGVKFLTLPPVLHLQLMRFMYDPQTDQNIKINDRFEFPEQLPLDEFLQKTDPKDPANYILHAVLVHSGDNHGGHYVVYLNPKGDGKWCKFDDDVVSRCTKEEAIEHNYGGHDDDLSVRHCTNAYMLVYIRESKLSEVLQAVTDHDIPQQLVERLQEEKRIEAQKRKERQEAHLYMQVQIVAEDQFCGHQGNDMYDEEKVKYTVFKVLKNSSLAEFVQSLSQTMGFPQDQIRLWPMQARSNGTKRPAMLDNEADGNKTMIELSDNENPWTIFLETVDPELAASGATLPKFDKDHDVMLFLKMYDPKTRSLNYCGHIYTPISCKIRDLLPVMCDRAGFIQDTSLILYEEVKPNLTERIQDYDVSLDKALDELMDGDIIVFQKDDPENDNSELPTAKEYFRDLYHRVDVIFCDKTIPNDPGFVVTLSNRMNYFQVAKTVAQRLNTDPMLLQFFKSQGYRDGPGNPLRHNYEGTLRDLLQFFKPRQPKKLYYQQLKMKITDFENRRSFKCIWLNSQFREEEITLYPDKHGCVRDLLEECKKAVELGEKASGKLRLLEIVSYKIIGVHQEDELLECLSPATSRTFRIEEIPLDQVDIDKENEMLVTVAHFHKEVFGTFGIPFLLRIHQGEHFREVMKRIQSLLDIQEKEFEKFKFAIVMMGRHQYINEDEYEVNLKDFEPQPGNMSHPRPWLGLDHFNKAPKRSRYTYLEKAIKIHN

[2] = tested on: HDM2, p53 and p21 protein levels in MCF7 cells; test: Immunoblot of HDM2, p53 and p21 protein levels in treated cells; assay type: cell-based; details: 16 hours, FIG. 6A
Experimental: MCF7 and MM.1S were grown in RPMI supplemented with 10% Fetal Bovine serum (FBS) and antibiotics. Cells were treated with DMSO or different concentrations of compounds 10 and 11 for 6 (MM1S) or 16 (MCF7) hours in presence or absence of cycloheximide. For the experiments in which cycloheximide was used, cells were treated with compounds for 4 (MM1S) or 14 (MCF7) hours prior to the addition of 50 ug/ml of cycloheximide. At 6 or 16 h time point cells were washed in PBS and lysed in modified RIPA buffer (1% Triton X-100, 1% sodium deoxycholate, 0.1% SDS, 20 mM Tris, 150 mM NaCl, 1 mM EDTA) containing phosphatase inhibitor cocktails 1 and 2 (Sigma), and protease inhibitors. Protein concentrations were quantified using the BCA protein assay kit (Pierce) and samples were probed by immunoblotting using mdm2 (santa cruz sc-965), p53 (cell signaling 9282), p21 (cell signaling 2947), GAPDH (cell signaling 2118), USP7 (cell signaling 4833) antibodies (FIGS. 6A-D).

[3] = target: T1, USP7; test: Ub-AMC assay (USP7 assay); assay type: biochemical; set-up: fused on or other part: His tag from pET28aLIC; removed by thrombin for the catalytic domain, no removal step given for the full length; details: USP7 assay
Experimental: USP7 and mutants were tested for their activity in Ubiquitin-AMC assay in presence or absence of inhibitors. […] For the same assay USP7 full length WT and Q351 mutant were used at 50 nM. […] The reaction was incubated 30 min at room temperature prior to the addition of 2 uM Ubiquitin-AMC (Boston Biochem) substrate. […] The calculated initial rate values were plotted against inhibitor concentrations to determine IC50s. All the experimental data were plotted using Prism GraphPad. FIG. 2A illustrates the structure guided optimization for the inhibition of USP7.
ND refers to not disclosed.
Target sequence in this assay (Q93009 208-560 limits assumed): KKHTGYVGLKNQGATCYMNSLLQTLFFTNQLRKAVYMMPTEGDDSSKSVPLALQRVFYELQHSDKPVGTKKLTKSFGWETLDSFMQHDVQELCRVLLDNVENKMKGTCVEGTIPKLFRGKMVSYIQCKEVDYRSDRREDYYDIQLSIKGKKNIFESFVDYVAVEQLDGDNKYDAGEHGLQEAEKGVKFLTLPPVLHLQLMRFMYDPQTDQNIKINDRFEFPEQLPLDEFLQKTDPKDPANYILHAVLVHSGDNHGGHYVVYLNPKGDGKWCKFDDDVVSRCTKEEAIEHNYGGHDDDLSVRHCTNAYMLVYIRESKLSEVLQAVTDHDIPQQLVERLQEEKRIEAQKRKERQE

IC50 [3] [µM] | SMILES | also measured
– | O=C(CCc1ccccc1)N1CCC(O)(Cn2cnc3cc(Cl)ccc3c2=O)CC1 [Compound A, reference compound] | DH [1]: -5.4 kcal/mol; DS (cal/mol•K) [1]: 5.3 cal/mol•K; n (stoichiometry) [1]: 0.98; Kd ([1]; 0.02 mM protein, 0.2 mM ligand): 7.61 µM
< 0.2 | CC(CC(=O)N1CCC(O)(Cn2cnc3cc(Cl)ccc3c2=O)CC1)c1ccccc1 (stereo not shown) [Compound 8, 7-Chloro-3-((4-hydroxy-1-(3-phenylbutanoyl)piperidin-4-yl)methyl)quinazolin-4(3H)-one] | DH [1]: -3.9 kcal/mol; DS (cal/mol•K) [1]: 13.1 cal/mol•K; n (stoichiometry) [1]: 2.46; Kd ([1]; 0.02 mM protein, 0.2 mM ligand): 1.84 µM
> 10 | O=C(Cc1ccccc1)N1CCC(O)(Cn2cnc3cc(Cl)ccc3c2=O)CC1 [Compound 7, 7-Chloro-3-((4-hydroxy-1-(2-phenylacetyl)piperidin-4-yl)methyl)quinazolin-4(3H)-one] | Kd (μM) ([1]; 0.02 mM protein, 0.2 mM ligand): No binding
< 0.2 | CC(CC(=O)N1CCC(O)(Cn2cnc3cc(NC(=O)CCn4ccnc4)ccc3c2=O)CC1)c1ccccc1 (stereo not shown) [Compound 16] | –
> 10 | O=C(CCc1cccnc1)N1CCC(O)(Cn2cnc3cc(Cl)ccc3c2=O)CC1 [Compound 35] | –
> 10 | O=c1c2ccc(Cl)cc2ncn1CC1(O)CCN(c2cccnc2)CC1 [Compound 77] | –
> 10 | O=C([C@@H](O)Cc1ccccc1)N1CCC(O)(Cn2cnc3cc(Cl)ccc3c2=O)CC1 [Compound 32] | –
0.2 to 1 | CC(C)C(Cc1ccccc1)C(=O)N1CCC(O)(Cn2cnc3cc(Cl)ccc3c2=O)CC1 (stereo not shown) [Compound 91] | –
0.2 to 1 | CN(Cc1ccccc1)C(=O)N1CCC(O)(Cn2cnc3cc(Cl)ccc3c2=O)CC1 [Compound 38] | –
> 10 | O=C(c1ccc2c(Cl)c3c(nc2c1)CCCC3)N1CCC(O)(Cn2cnc3cc(Cl)ccc3c2=O)CC1 [Compound 71] | –
> 10 | O=C([C@@H]1C[C@H]1c1ccccc1)N1CCC(O)(Cn2cnc3cc(Cl)ccc3c2=O)CC1 [Compound 74] | –
> 10 | O=C(CC1c2ccccc2-c2ccccc21)N1CCC(O)(Cn2cnc3cc(Cl)ccc3c2=O)CC1 [Compound 88] | –
> 10 | CC(C)(C)C(=O)N1CCC(O)(Cn2cnc3cc(Cl)ccc3c2=O)CC1 [Compound 76] | –
1 to 10 | COC(Cc1ccccc1)C(=O)N1CCC(O)(Cn2cnc3cc(Cl)ccc3c2=O)CC1 (stereo not shown) [Compound 92] | –
> 10 | O=C([C@H]1C[C@@H]1c1ccccc1)N1CCC(O)(Cn2cnc3cc(Cl)ccc3c2=O)CC1 [Compound 75] | –
> 10 | O=C(N1CCC(O)(Cn2cnc3cc(Cl)ccc3c2=O)CC1)N(Cc1ccccc1)Cc1ccccc1 [Compound 40] | –
> 10 | COc1ccc(CCC(=O)N2CCC(O)(Cn3cnc4cc(Cl)ccc4c3=O)CC2)cc1 [Compound 53] | –

IC50 [3] [µM] | SMILES | also measured
> 10 | O=C(NCCCn1cnc2cc(Cl)ccc2c1=O)c1ccc2c(Cl)c3c(nc2c1)CCCC3 [Compound 85] | –
0.2 to 1 | C[C@H](CC(=O)N1CCC(O)(Cn2cnc3cc(N)ccc3c2=O)CC1)c1ccccc1 [Compound 101] | –
> 10 | CN1CCN(CCC(=O)Nc2ccc3c(=O)n(CC4(O)CCN(C(=O)C(Cc5ccccc5)c5ccccc5)CC4)cnc3c2)CC1 (stereo not shown) [Compound 49] | –
> 10 | O=C(CCn1cccc1)N1CCC(O)(Cn2cnc3cc(Cl)ccc3c2=O)CC1 [Compound 51] | –
0.2 to 1 | CC(=O)Nc1ccc2c(=O)n(CC3(O)CCN(C(=O)C[C@@H](C)c4ccccc4)CC3)cnc2c1 [Compound 102] | –
< 0.2 | C[C@@H](CC(=O)N1CCC(O)(Cn2cnc3cc(Cl)ccc3c2=O)CC1)c1ccccc1 [Compound 9, (S)-7-Chloro-3-((4-hydroxy-1-(3-phenylbutanoyl)piperidin-4-yl)methyl)quinazolin-4(3H)-one] | DH [1]: -13.5 kcal/mol; DS (cal/mol•K) [1]: −17.3 cal/mol•K; n (stoichiometry) [1]: 0.96; Kd ([1]; 0.02 mM protein, 0.2 mM ligand): 0.797 µM
> 10 | [N-]=[N+]=NCCOCCOCC(=O)Nc1ccc2c(=O)n(CC3(O)CCN(C(=O)CCc4ccccc4)CC3)cnc2c1 [Compound 63] | –
0.2 to 1 | O=C(CCc1ccc(F)cc1)N1CCC(O)(Cn2cnc3cc(Cl)ccc3c2=O)CC1 [Compound 54] | –
> 10 | C=CCCC(=O)N1CCC(O)(Cn2cnc3cc(Cl)ccc3c2=O)CC1 [Compound 20] | –
> 10 | O=c1c2ccc(Cl)cc2ncn1CC1(O)CCN(c2ccccc2)CC1 [Compound 70] | –
> 10 | Cc1cccc(CCC(=O)N2CCC(O)(Cn3cnc4cc(Cl)ccc4c3=O)CC2)c1 [Compound 89] | –
1 to 10 | CC(=O)Nc1ccc2c(=O)n(CC3(O)CCN(C(=O)CCc4ccccc4)CC3)cnc2c1 [Compound 64] | –
> 10 | O=C(CCC1CCCCC1)N1CCC(O)(Cn2cnc3cc(Cl)ccc3c2=O)CC1 [Compound 55] | –
> 10 | O=C(C(Cc1ccccc1)c1ccccc1)N1CCC(O)(Cn2cnc3cc(Cl)ccc3c2=O)CC1 (stereo not shown) [Compound 95] | –
> 10 | O=C(CCc1ccc(F)cc1)N1CCC(O)(Cn2cnc3cc(Cl)ccc3c2=O)C1 (stereo not shown) [Compound 66] | –
1 to 10 | O=C(NCCCC(=O)N1CCC(O)(Cn2cnc3cc(Cl)ccc3c2=O)CC1)c1ccc2c(Cl)c3c(nc2c1)CCCC3 [Compound 84] | –

SMILES | IC50 [3] [µM] | also measured
C[C@H](CC(=O)N1CCC(O)(Cn2cnc3cc(NC(=O)CCN4CCN(C)CC4)ccc3c2=O)CC1)c1ccccc1 [Compound 10, (R)—N-(3-((4-Hydroxy-1-(3-phenylbutanoyl)piperidin-4-yl)methyl)-4-oxo-3,4-dihydroquinazolin-7-yl)-3-(4-methylpiperazin-1-yl)propanamide] | < 0.2 | HDM2, p53 and p21 protein levels [2]: promotes loss HDM2 and accumulation of p53 and p21; DH [1]: -15.1 kcal/mol; n (stoichiometry) [1]: 1.06; Kd ([1]; 0.02 mM protein, 0.2 mM ligand): 0.104 µM
O=C(CF)N[C@@H](Cc1ccccc1)C(=O)N1CCC(O)(Cn2cnc3cc(Cl)ccc3c2=O)CC1 [Compound 62] | > 10 | –
O=C(C1CCCN1c1ccccc1)N1CCC(O)(Cn2cnc3cc(Br)ccc3c2=O)CC1 (stereo not shown) [Compound 65] | > 10 | –
